The values below come from patent US5001155A, “β-ionone derivative as antifungal agent” (University of Kentucky Research Foundation, priority 1989, dated 1991).

≈ marks a conversion by molar mass, not a printed value.

One test relates to P. tabacina conidia.
Assay: not given
Particulars: Phytochemistry 1972, vol. 11, pp. 2055-2063; cited from earlier work.
With `CC(=O)/C=C/C1=C(C)CC(OC(=O)C(C)C)CC1(C)C` (stereo not drawn) [Quieson, 3-isobutyroyloxy-β-ionone, reference compound], the inhibition of germination result is reported as “an inhibitor of the germination of P. tabacina conidia”.

Another test concerns Peronospora tabacina sporangia. Kind of test: Inhibition of Sporangial Germination, Variant II (test 3.12). Format: cell-based. Particulars: 1% water agar, 10^6 s/ml, 18° C., 16 hours, read-out: ED50 (the source's name). How it is done: 3.12. Variant II In another in vitro test, the substances (10^2 -10^-8 ppm) were added to 1% water agar and poured into petri dishes. After cooling, the media were inoculated with 100 μl of a suspension of sporangia (10^6 s/ml) and incubated at 18° C. during 16 hours. The germinated sporangia were counted under the microscope.
On to `CCOCC(=O)O[C@@H]1CC(C)=C(/C=C/C(C)=O)C(C)(C)C1` [3(R)-ethoxyacetoxy-β-ionone], for which the IC50 was determined as 0.006 ng/mL (≈ 0.0204 nM). With `COCC(=O)O[C@@H]1CC(C)=C(/C=C/C(C)=O)C(C)(C)C1` [3(R)-methoxyacetoxy-β-ionone], the IC50 stood at 8e-05 ng/mL (≈ 0.000285 nM).

In the case of `CCCC(=O)O[C@@H]1CC(C)=C(/C=C/C(C)=O)C(C)(C)C1` [3(R)-n-butyroyloxy-β-ionone, 3(R)-butyroyloxy-β-ionone], the IC50 came to 2e-05 ng/mL (≈ 7.18e-05 nM). On the same count and under the same terms, under `CCCCCC(=O)O[C@@H]1CC(C)=C(/C=C/C(C)=O)C(C)(C)C1` [3(R)-n-hexanoyloxy-β-ionone] stands 0.05 ng/mL (≈ 0.163 nM); under `CC(=O)/C=C/C1=C(C)C[C@@H](OC(=O)C(C)(C)C)CC1(C)C` [3(R)-pivaloyloxy-β-ionone], 0.001 ng/mL (≈ 0.00342 nM); under `CC(=O)/C=C/C1=C(C)CC(OC(=O)C(C)C)CC1(C)C` (stereo not drawn) [Quieson, 3-isobutyroyloxy-β-ionone, reference compound], 0.4 ng/mL (≈ 1.44 nM).
